Experimental data from patent publication US12157730B2, “Heteroaryl derivative, method for producing same, and pharmaceutical composition comprising same as effective component” (VORONOI INC., priority 2019, dated 2024).

Molecular target: T1, Ba/F3 cell EGFR Exon20 ins NPH (Homo sapiens, UniProt P00533, INS773NPH)
T1 construct: expressed in transfected cells; host or cells: Ba/F3
Assay: Ba/F3 cell proliferation suppression, EGFR Exon20 ins NPH
Type: cell-based
Settings: GI50 class; Ba/F3 cell line with NPH inserted at Exon20 of EGFR; 72 hours
How it was run: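 After 72 h compound exposure (twelve 3-fold steps, 0.3 nM–50 um final), live cells were measured by CellTiter-Glo luminescence and growth expressed as % of control to derive GI50. Cells were seeded at 3000–5000 per well a day earlier; Ba/F3 medium contained IL-3; three repeats.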

SMILES	Ba/F3 (NPH) Activity
C=CC(=O)Nc1cc(Nc2cc(N3OCC[C@@H]3c3ccc(F)cc3F)ncn2)c(OC)cc1N1C[C@H]2C[C@@H]1CO2 [compound 353, N-(2-((1R,4R)-2-oxa-5-azabicyclo[2.2.1]heptane-5-yl)-5-((6-((R)-3-(2,4-difluorophenyl)isoxazolidine-2-yl)pyrimidine-4-yl)amino)-4-methoxyphenyl) acrylamide]	A (GI50 < 50 nM)
C=CC(=O)Nc1cc(Nc2cc(N3OCC[C@@H]3c3cccc(C)c3F)ncn2)c(OC)cc1N1CCN(C2COC2)CC1 [compound 908, N-(5-((6-((R)-3-(2-fluoro-3-methylphenyl)isoxazolidine-2-yl)pyrimidine-4-yl)amino)-4-methoxy-2-(4-(oxetane-3-yl)piperazine-1-yl)phenyl) acrylamide]	A (GI50 < 50 nM)
C=CC(=O)Nc1cc(Nc2cc(N3OCC[C@@H]3c3ccc(Cl)cc3F)ncn2)c(OC)cc1N1CC[C@@H](N(C)C)C1 [compound 456, N-(5-((6-((R)-3-(4-chloro-2-fluorophenyl)isoxazolidine-2-yl)pyrimidine-4-yl)amino)-2-((R)-3-(dimethylamino)pyrolidine-1-yl)-4-methoxyphenyl) acrylamide]	A (GI50 < 50 nM)
C=CC(=O)Nc1cc(Nc2cc(N3OCC[C@@H]3Cc3cccc(Cl)c3C)ncn2)c(OC)cc1N1CCC(N2CCN(C3CC3)CC2)CC1 [compound 1025, N-(5-((6-((S)-3-(3-chloro-2-methylbenzyl)isoxazolidine-2-yl)pyrimidine-4-yl)amino)-2-(4-(4-cyclopropylpiperazine-1-yl)piperidine-1-yl)-4-methoxyphenyl) acrylamide]	A (GI50 < 50 nM)
C=CC(=O)Nc1cc(Nc2cc(N3OCC[C@@H]3c3ccc(F)c(F)c3)ncn2)c(OC)cc1N1CCC(N2CCN(CCC)CC2)CC1 [compound 547, N-(5-((6-((R)-3-(3,4-difluorophenyl)isoxazolidine-2-yl)pyrimidine-4-yl)amino)-4-methoxy-2-(4-(4-propylpiperazine-1-yl)piperidine-1-yl)phenyl) acrylamide]	A (GI50 < 50 nM)
C=CC(=O)Nc1cc(Nc2cc(N3OCC[C@@H]3c3ccc(F)c(Cl)c3F)ncn2)c(OC)cc1N1CCC(N2C[C@@H]3C[C@H]2CO3)CC1 [compound 637, N-(2-(4-((1S,4S)-2-oxa-5-azabicyclo[2.2.1]heptane-5-yl)piperidine-1-yl)-5-((6-((R)-3-(3-chloro-2,4-difluorophenyl)isoxazolidine-2-yl)pyrimidine-4-yl)amino)-4-methoxyphenyl) acrylamide]	A (GI50 < 50 nM)
C=CC(=O)Nc1cc(Nc2cc(N3OCC[C@@H]3Cc3cccc(F)c3)ncn2)c(OC)cc1N1CCC(N2C[C@H]3C[C@@H]2CO3)CC1 [compound 998, N-(2-(4-((1R,4R)-2-oxa-5-azabicyclo [2.2.1]heptane-5-yl)piperidine-1-yl)-5-((6-((S)-3-(3-fluorobenzyl)isoxazolidine-2-yl)pyrimidine-4-yl)amino)-4-methoxyphenyl) acrylamide]	A (GI50 < 50 nM)
C=CC(=O)Nc1cc(Nc2cc(N3OCC[C@@H]3c3cc(F)ccc3F)ncn2)c(OC)cc1N1CCN(C2COC2)CC1 [compound 881, N-(5-((6-((R)-3-(2,5-difluorophenyl)isoxazolidine-2-yl)pyrimidine-4-yl)amino)-4-methoxy-2-(4-(oxetane-3-yl)piperazine-1-yl)phenyl) acrylamide]	A (GI50 < 50 nM)
C=CC(=O)Nc1cc(Nc2cc(N3OCC[C@@H]3c3ccc4ccccc4c3)ncn2)c(OC)cc1N1CCC(N2CCN(C3CC3)CC2)CC1 [Example 151, N-(2-(4-(4-cyclopropylpiperazine-1-yl)piperidine-1-yl)-4-methoxy-5-((6-((R)-3-(naphthalene-2-yl)isoxazolidine-2-yl)pyrimidine-4-yl)amino)phenyl)acrylamide]	B (50 nM ≤ GI50 < 500 nM)
C=CC(=O)Nc1cc(Nc2cc(N3OCC[C@@H]3c3ccc(Cl)c(Cl)c3F)ncn2)c(OC)cc1N1CC[C@H](N2CCOCC2)C1 [Example 295, N-(5-((6-((R)-3-(3,4-dichloro-2-fluorophenyl)isoxazolidine-2-yl)pyrimidine-4-yl)amino)-4-methoxy-2-((S)-3-morpholinopyrolidine-1-yl)phenyl)acrylamide]	C (500 nM ≤ GI50 < 5000 nM)
C=CC(=O)Nc1cc(Nc2cc(N3OCC[C@@H]3Cc3ccccc3)ncn2)c(OC)cc1N1C[C@H]2C[C@@H]1CN2CC [compound 949, N-(5-((6-((S)-3-benzylisoxazolidine-2-yl)pyrimidine-4-yl)amino)-2-((1R,4R)-5-ethyl-2,5-diazabicyclo [2.2.1]heptane-2-yl)-4-methoxyphenyl) acrylamide]	A (GI50 < 50 nM)
C#Cc1cccc([C@H]2CCON2c2cc(Nc3cc(NC(=O)C=C)c(N4CCC(N5CCN(C6CCC6)CC5)CC4)cc3OC)ncn2)c1 [Example 191, N-(2-(4-(4-cyclobutylpiperazine-1-yl)piperidine-1-yl)-5-((6-((R)-3-(3-ethynylphenyl)isoxazolidine-2-yl)pyrimidine-4-yl)amino)-4-methoxyphenyl) acrylamide]	A (GI50 < 50 nM)
C=CC(=O)Nc1cc(Nc2cc(N3OCC[C@@H]3c3cc(F)cc(F)c3)ncn2)c(OC)cc1N1CCC(N2CCC3(CC2)CC3)CC1 [compound 700, N-(2-(4-(6-azaspiro[2.5]octan-6-yl)piperidine-1-yl)-5-((6-((R)-3-(3,5-difluorophenyl)isoxazolidine-2-yl)pyrimidine-4-yl)amino)-4-methoxyphenyl) acrylamide]	A (GI50 < 50 nM)
C=CC(=O)Nc1cc(Nc2cc(N3OCC[C@@H]3c3ccc4ccccc4c3)ncn2)c(OC)cc1N1CCC(N(C)C)CC1 [compound 510, N-(2-(4-(dimethylamino)piperidine-1-yl)-4-methoxy-5-((6-((R)-3-(naphthalene-2-yl)isoxazolidine-2-yl)pyrimidine-4-yl)amino)phenyl)acrylamide]	B (50 nM ≤ GI50 < 500 nM)
C=CC(=O)Nc1cc(Nc2cc(N3OCC[C@@H]3c3ccc(Cl)c(F)c3)ncn2)c(OC)cc1N1CCN(C)CC1 [compound 795, N-(5-((6-((R)-3-(4-chloro-3-fluorophenyl)isoxazolidine-2-yl)pyrimidine-4-yl)amino)-4-methoxy-2-(4-methylpiperazine-1-yl)phenyl)acrylamide]	B (50 nM ≤ GI50 < 500 nM)

The next lines start with the values.

Ba/F3 (NPH) Activity	SMILES
A (GI50 < 50 nM)	C=CC(=O)Nc1cc(Nc2cc(N3OCC[C@@H]3c3cccc(C(F)(F)F)c3)ncn2)c(OC)cc1N1CCC(N2CCN(C3CC3)[C@@H](C)C2)CC1 [compound 941, N-(2-(4-((S)-4-cyclopropyl-3-methylpiperazine-1-yl)piperidine-1-yl)-4-methoxy-5-((6-((R)-3-(3-(trifluoromethyl)phenyl)isoxazolidine-2-yl)pyrimidine-4-yl)amino)phenyl) acrylamide]
A (GI50 < 50 nM)	C=CC(=O)Nc1cc(Nc2cc(N3OCC[C@@H]3c3cccc(Cl)c3)ncn2)c(OC)cc1N1CCC(N2C[C@@H](C)O[C@@H](C)C2)CC1 [compound 415, N-(5-((6-((R)-3-(3-chlorophenyl)isoxazolidine-2-yl)pyrimidine-4-yl)amino)-2-(4-((2S,6R)-2,6-dimethylmorpholino)piperidine-1-yl)-4-methoxyphenyl) acrylamide]
B (50 nM ≤ GI50 < 500 nM)	C=CC(=O)Nc1cc(Nc2cc(N3OCC[C@@H]3c3ccc(F)c(Cl)c3F)ncn2)c(OC)cc1N1C[C@@H](C)O[C@@H](C)C1 [compound 667, N-(5-((6-((R)-3-(3-chloro-2,4-difluorophenyl)isoxazolidine-2-yl)pyrimidine-4-yl)amino)-2-((2S,6R)-2,6-dimethylmorpholino)-4-methoxyphenyl) acrylamide]
A (GI50 < 50 nM)	C=CC(=O)Nc1cc(Nc2cc(N3OCC[C@@H]3c3cccc(OC)c3)ncn2)c(OC)cc1N1CCC(N2CCN(CCC)CC2)CC1 [compound 549, N-(4-methoxy-5-((6-((R)-3-(3-methoxyphenyl)isoxazolidine-2-yl)pyrimidine-4-yl)amino)-2-(4-(4-propylpiperazine-1-yl)piperidine-1-yl)phenyl) acrylamide]
B (50 nM ≤ GI50 < 500 nM)	C=CC(=O)Nc1cc(Nc2cc(N3OCC[C@@H]3c3ccc(Cl)c(Cl)c3F)ncn2)c(OC)cc1N1CCC(N2C[C@@H](C)O[C@@H](C)C2)CC1 [compound 773, N-(5-((6-((R)-3-(3,4-dichloro-2-fluorophenyl)isoxazolidine-2-yl)pyrimidine-4-yl)amino)-2-(4-((2S,6R)-2,6-dimethylmorpholino)piperidine-1-yl)-4-methoxyphenyl) acrylamide]
A (GI50 < 50 nM)	C=CC(=O)Nc1cc(Nc2cc(N3OCC[C@@H]3c3ccccc3)ncn2)c(OC)cc1N1CCC(N2C[C@@H]3C[C@H]2CO3)CC1 [Example 54, N-(2-(4-((1S,4S)-2-oxa-5-oxabicyclo[2.2.1]heptane-5-yl)piperidine-1-yl)-4-methoxy-5-((6-((R)-3-phenylisoxazolidne-2-yl)pyrimidine-4-yl)amino)phenyl) acrylamide]
B (50 nM ≤ GI50 < 500 nM)	C=CC(=O)Nc1cc(Nc2cc(N3OCC[C@@H]3c3cccc(Cl)c3F)ncn2)c(OC)cc1N1CCC(N2CCC(N(C)C)CC2)CC1 [compound 915, N-(5-((6-((R)-3-(3-chloro-2-fluorophenyl)isoxazolidine-2-yl)pyrimidine-4-yl)amino)-2-(4-(dimethylamino)-[1,4'-bipiperidine]-1'-yl)-4-methoxyphenyl) acrylamide]
A (GI50 < 50 nM)	C=CC(=O)Nc1cc(Nc2cc(N3OCC[C@@H]3c3ccc(F)c(F)c3)ncn2)c(OC)cc1N1CCC(N2CCOCC2)CC1 [compound 503, N-(5-((6-((R)-3-(3,4-difluorophenyl)isoxazolidine-2-yl)pyrimidine-4-yl)amino)-4-methoxy-2-(4-morpholinopiperidine-1-yl)phenyl)acrylamide]
